Results: patent US9113629B2, “4-amino-6-(4-substituted-phenyl)-picolinates and 6-amino-2-(4-substituted-phenyl)-pyrimidine-4-carboxylates and their use as herbicides” (DOW AGROSCIENCES LLC, priority 2013, dated 2015)
Like-named read-outs stand apart in the source and are kept apart here.

Experiments:
[1] = system: Key Broadleaf Weed and Crop Species; assay: Post-emergent Test II herbicidal activity (Table 5); format: in vivo; conditions: post-emergence, 336 h, 14 days after application; for pest or weed control at 70 g/ha: application rate 70 g ai/ha; for pest or weed control at 140 g/ha: application rate 140 g ai/ha
Procedure, shortened: (§1)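 Greenhouse post-emergent assay: seedlings (first/second true leaf) in Metro-Mix 360 were sprayed at 187 L/ha at a top rate plus twofold dilutions down to 1/16×; solvent-blank controls were included. Percent visual injury was read at 14 d.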

[2] = system: Key Grass and Sedge Weeds as well as Grass Crops; assay: Post-emergent Test II herbicidal activity (Table 6); format: in vivo; conditions: post-emergence, 336 h
Procedure, shortened: as §1

[3] = ABUTH: velvetleaf (Abutilon theophrasti), read-out: Visual Growth Reduction (%) 14 Days After Application, ABUTH
[4] = AMARE: redroot pigweed (Amaranthus retroflexus), read-out: Visual Growth Reduction (%) 14 Days After Application, AMARE
[5] = BRSNN: oilseed-rape, canola (Brassica napus), read-out: Visual Growth Reduction (%) 14 Days After Application, BRSNN
[6] = CHEAL: lambsquarters (Chenopodium album), read-out: Visual Growth Reduction (%) 14 Days After Application, CHEAL
[7] = EPHHL: wild poinsettia (Euphorbia heterophylla), read-out: Visual Growth Reduction (%) 14 Days After Application, EPHHL
[8] = HELAN: sunflower (Helianthus annuus), read-out: Visual Growth Reduction (%) 14 Days After Application, HELAN
[9] = VIOTR: wild pansy (Viola tricolor), read-out: Visual Growth Reduction (%) 14 Days After Application, VIOTR

Compound	pest or weed control at 70 g/ha [1, 3] [%]	pest or weed control at 140 g/ha [1, 3] [%]	pest or weed control at 70 g/ha [1, 4] [%]	pest or weed control at 140 g/ha [1, 4] [%]	pest or weed control at 70 g/ha [1, 5] [%]	pest or weed control at 140 g/ha [1, 5] [%]	pest or weed control at 70 g/ha [1, 6] [%]	pest or weed control at 140 g/ha [1, 6] [%]	pest or weed control at 70 g/ha [1, 7] [%]	pest or weed control at 140 g/ha [1, 7] [%]	pest or weed control at 70 g/ha [1, 8] [%]	pest or weed control at 140 g/ha [1, 8] [%]	pest or weed control at 70 g/ha [1, 9] [%]	pest or weed control at 140 g/ha [1, 9] [%]	melting point [°C]	further results
COC(=O)c1nc(-c2ccc(I)c(F)c2F)cc(N)c1Cl [Compound 129, Methyl 4-amino-3-chloro-6-(2,3-difluoro-4-iodophenyl)picolinate]	95 to 100	95 to 100	95 to 100	95 to 100	85 to 94	95 to 100	95 to 100	95 to 100	95 to 100	95 to 100	75 to 84	85 to 94	95 to 100	95 to 100	172 to 174	pest or weed control at 70 g/ha ([2]; Triticum aestivum, TRZSS (wheat), application rate 70 g ai/ha, read-out: Visual Growth Reduction (%) 14 Days After Application, TRZSS): 45 to 59%; pest or weed control at 140 g/ha ([2]; Triticum aestivum, TRZSS (wheat), application rate 140 g ai/ha, read-out: Visual Growth Reduction (%) 14 Days After Application, TRZSS): 45 to 59%; pest or weed control at 70 g/ha ([2]; CYPES: yellow nutsedge (Cyperus esculentus), application rate 70 g ai/ha, read-out: Visual Growth Reduction (%) 14 Days After Application, CYPES): 95 to 100%; pest or weed control at 70 g/ha ([2]; DIGSA: crabgrass (Digitaria sanguinalis), application rate 70 g ai/ha, read-out: Visual Growth Reduction (%) 14 Days After Application, DIGSA): 60 to 74%; pest or weed control at 140 g/ha ([2]; DIGSA: crabgrass (Digitaria sanguinalis), application rate 140 g ai/ha, read-out: Visual Growth Reduction (%) 14 Days After Application, DIGSA): 60 to 74%; pest or weed control at 70 g/ha ([2]; ECHCG: barnyardgrass (Echinochloa crus-galli), application rate 70 g ai/ha, read-out: Visual Growth Reduction (%) 14 Days After Application, ECHCG): 75 to 84%; pest or weed control at 140 g/ha ([2]; ECHCG: barnyardgrass (Echinochloa crus-galli), application rate 140 g ai/ha, read-out: Visual Growth Reduction (%) 14 Days After Application, ECHCG): 75 to 84%; pest or weed control at 70 g/ha ([2]; ORYSA: rice (Oryza sativa), application rate 70 g ai/ha, read-out: Visual Growth Reduction (%) 14 Days After Application, ORYSA): 0 to 29%; pest or weed control at 140 g/ha ([2]; ORYSA: rice (Oryza sativa), application rate 140 g ai/ha, read-out: Visual Growth Reduction (%) 14 Days After Application, ORYSA): 0 to 29%; pest or weed control at 70 g/ha ([2]; SORVU: grain sorghum (Sorghum vulgare), application rate 70 g ai/ha, read-out: Visual Growth Reduction (%) 14 Days After Application, SORVU): 95 to 100%; pest or weed control at 140 g/ha ([2]; SORVU: grain sorghum (Sorghum vulgare), application rate 140 g ai/ha, read-out: Visual Growth Reduction (%) 14 Days After Application, SORVU): 95 to 100%; pest or weed control at 70 g/ha ([2]; ZEAMX: maize, corn (Zea mays), application rate 70 g ai/ha, read-out: Visual Growth Reduction (%) 14 Days After Application, ZEAMX): 60 to 74%; pest or weed control at 140 g/ha ([2]; ZEAMX: maize, corn (Zea mays), application rate 140 g ai/ha, read-out: Visual Growth Reduction (%) 14 Days After Application, ZEAMX): 75 to 84%
COC(=O)c1nc(-c2ccc(I)c(F)c2)c(F)c(N)c1Cl [Compound 132]	95 to 100	95 to 100	95 to 100	95 to 100	95 to 100	95 to 100	95 to 100	95 to 100	95 to 100	95 to 100	95 to 100	95 to 100	95 to 100	95 to 100	138 to 140	pest or weed control at 70 g/ha ([2]; CYPES: yellow nutsedge (Cyperus esculentus), 70 g ai/ha, read-out: Visual Growth Reduction (%) 14 Days After Application, CYPES): 45 to 59%; pest or weed control at 140 g/ha ([2]; CYPES: yellow nutsedge (Cyperus esculentus), 140 g ai/ha, read-out: Visual Growth Reduction (%) 14 Days After Application, CYPES): 85 to 94%; pest or weed control at 70 g/ha ([2]; DIGSA: crabgrass (Digitaria sanguinalis), 70 g ai/ha, read-out: Visual Growth Reduction (%) 14 Days After Application, DIGSA): 85 to 94%; pest or weed control at 140 g/ha ([2]; DIGSA: crabgrass (Digitaria sanguinalis), 140 g ai/ha, read-out: Visual Growth Reduction (%) 14 Days After Application, DIGSA): 85 to 94%; pest or weed control at 70 g/ha ([2]; ECHCG: barnyardgrass (Echinochloa crus-galli), 70 g ai/ha, read-out: Visual Growth Reduction (%) 14 Days After Application, ECHCG): 85 to 94%; pest or weed control at 140 g/ha ([2]; ECHCG: barnyardgrass (Echinochloa crus-galli), 140 g ai/ha, read-out: Visual Growth Reduction (%) 14 Days After Application, ECHCG): 75 to 84%; pest or weed control at 70 g/ha ([2]; ORYSA: rice (Oryza sativa), crop, 70 g ai/ha, read-out: Visual Growth Reduction (%) 14 Days After Application, ORYSA): 0 to 29%; pest or weed control at 140 g/ha ([2]; ORYSA: rice (Oryza sativa), crop, 140 g ai/ha, read-out: Visual Growth Reduction (%) 14 Days After Application, ORYSA): 0 to 29%; pest or weed control at 70 g/ha ([2]; SETFA: giant foxtail (Setaria faberi), 70 g ai/ha, read-out: Visual Growth Reduction (%) 14 Days After Application, SETFA): 0 to 29%; pest or weed control at 140 g/ha ([2]; SETFA: giant foxtail (Setaria faberi), 140 g ai/ha, read-out: Visual Growth Reduction (%) 14 Days After Application, SETFA): 60 to 74%; pest or weed control at 70 g/ha ([2]; SORVU: grain sorghum (Sorghum vulgare), 70 g ai/ha, read-out: Visual Growth Reduction (%) 14 Days After Application, SORVU): 85 to 94%; pest or weed control at 140 g/ha ([2]; SORVU: grain sorghum (Sorghum vulgare), 140 g ai/ha, read-out: Visual Growth Reduction (%) 14 Days After Application, SORVU): 95 to 100%; pest or weed control at 70 g/ha ([2]; TRZSS (wheat, Triticum aestivum), crop, 70 g ai/ha, read-out: Visual Growth Reduction (%) 14 Days After Application, TRZSS): 0 to 29%; pest or weed control at 140 g/ha ([2]; TRZSS (wheat, Triticum aestivum), crop, 140 g ai/ha, read-out: Visual Growth Reduction (%) 14 Days After Application, TRZSS): 30 to 44%; pest or weed control at 70 g/ha ([2]; ZEAMX: maize, corn (Zea mays), crop, 70 g ai/ha, read-out: Visual Growth Reduction (%) 14 Days After Application, ZEAMX): 95 to 100%; pest or weed control at 140 g/ha ([2]; ZEAMX: maize, corn (Zea mays), crop, 140 g ai/ha, read-out: Visual Growth Reduction (%) 14 Days After Application, ZEAMX): 95 to 100%
